Structures are written as SMILES.

Assay [1] deals with T1, Nitric oxide synthase 1 (Rattus norvegicus, UniProt P29476). As to the kind of experiment: Tested to inhibit the conversion of [3H]L-arginine to [3H]L-citrulline catalyzed by neuronal NOS from rat cerebellum. Type of assay: tissue-based.
In assay [2] the target is T2, Nitric oxide synthase, inducible (Homo sapiens, UniProt P35228). Kind of assay: Tested to inhibit the conversion of [3H]-L-arginine to [3H]L-citrulline catalyzed by inducible NOS from human DLD-1 cells at concentration below 100 uM; No significant inhibition. In kind it is cell-based.
Assay [3] deals with T3, Nitric oxide synthase 3 (Homo sapiens, UniProt P29474).
T3 sequence (P29474 whole entry): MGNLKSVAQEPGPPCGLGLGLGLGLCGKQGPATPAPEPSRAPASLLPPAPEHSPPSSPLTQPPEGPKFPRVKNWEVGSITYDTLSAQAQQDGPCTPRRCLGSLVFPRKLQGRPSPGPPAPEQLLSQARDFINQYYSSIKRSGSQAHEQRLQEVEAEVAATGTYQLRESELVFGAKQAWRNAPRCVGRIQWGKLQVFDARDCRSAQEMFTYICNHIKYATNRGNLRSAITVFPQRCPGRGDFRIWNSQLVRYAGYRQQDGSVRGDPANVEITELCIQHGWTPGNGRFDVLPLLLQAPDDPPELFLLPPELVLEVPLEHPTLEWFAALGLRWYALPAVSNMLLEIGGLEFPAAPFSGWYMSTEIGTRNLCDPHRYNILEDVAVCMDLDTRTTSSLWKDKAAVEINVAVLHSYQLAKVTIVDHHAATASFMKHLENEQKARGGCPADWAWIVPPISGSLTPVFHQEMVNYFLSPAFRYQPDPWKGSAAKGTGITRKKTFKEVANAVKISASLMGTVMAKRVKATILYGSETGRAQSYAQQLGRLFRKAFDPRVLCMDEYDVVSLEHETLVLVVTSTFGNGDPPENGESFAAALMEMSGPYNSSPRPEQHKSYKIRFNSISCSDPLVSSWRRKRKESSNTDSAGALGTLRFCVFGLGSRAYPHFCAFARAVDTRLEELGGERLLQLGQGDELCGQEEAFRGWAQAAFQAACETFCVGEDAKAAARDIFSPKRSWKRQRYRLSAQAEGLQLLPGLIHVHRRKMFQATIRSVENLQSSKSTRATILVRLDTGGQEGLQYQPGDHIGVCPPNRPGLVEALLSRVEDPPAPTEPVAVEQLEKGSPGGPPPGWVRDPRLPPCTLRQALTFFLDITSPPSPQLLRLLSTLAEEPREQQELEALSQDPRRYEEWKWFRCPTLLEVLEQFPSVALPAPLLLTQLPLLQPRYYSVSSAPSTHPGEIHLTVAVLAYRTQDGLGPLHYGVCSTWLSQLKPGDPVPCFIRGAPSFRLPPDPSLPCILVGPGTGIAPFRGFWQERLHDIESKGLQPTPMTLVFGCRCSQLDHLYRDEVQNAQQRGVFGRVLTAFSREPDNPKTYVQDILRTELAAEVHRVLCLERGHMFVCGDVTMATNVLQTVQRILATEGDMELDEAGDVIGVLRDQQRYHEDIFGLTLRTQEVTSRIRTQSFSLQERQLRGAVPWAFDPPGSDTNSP
Kind of assay: Tested to inhibit the conversion of [3H]L-arginine to [3H]L-citrulline catalyzed by endothelial NOS from human umbilical vein endothelial cells; No significant inhibition. Type of assay: cell-based. Particulars: endothelial cell; call rule not given here.

Assay [4] concerns the target T4, Nitric oxide synthase, inducible (Mus musculus, UniProt P29477).
T4 sequence (P29477 whole entry): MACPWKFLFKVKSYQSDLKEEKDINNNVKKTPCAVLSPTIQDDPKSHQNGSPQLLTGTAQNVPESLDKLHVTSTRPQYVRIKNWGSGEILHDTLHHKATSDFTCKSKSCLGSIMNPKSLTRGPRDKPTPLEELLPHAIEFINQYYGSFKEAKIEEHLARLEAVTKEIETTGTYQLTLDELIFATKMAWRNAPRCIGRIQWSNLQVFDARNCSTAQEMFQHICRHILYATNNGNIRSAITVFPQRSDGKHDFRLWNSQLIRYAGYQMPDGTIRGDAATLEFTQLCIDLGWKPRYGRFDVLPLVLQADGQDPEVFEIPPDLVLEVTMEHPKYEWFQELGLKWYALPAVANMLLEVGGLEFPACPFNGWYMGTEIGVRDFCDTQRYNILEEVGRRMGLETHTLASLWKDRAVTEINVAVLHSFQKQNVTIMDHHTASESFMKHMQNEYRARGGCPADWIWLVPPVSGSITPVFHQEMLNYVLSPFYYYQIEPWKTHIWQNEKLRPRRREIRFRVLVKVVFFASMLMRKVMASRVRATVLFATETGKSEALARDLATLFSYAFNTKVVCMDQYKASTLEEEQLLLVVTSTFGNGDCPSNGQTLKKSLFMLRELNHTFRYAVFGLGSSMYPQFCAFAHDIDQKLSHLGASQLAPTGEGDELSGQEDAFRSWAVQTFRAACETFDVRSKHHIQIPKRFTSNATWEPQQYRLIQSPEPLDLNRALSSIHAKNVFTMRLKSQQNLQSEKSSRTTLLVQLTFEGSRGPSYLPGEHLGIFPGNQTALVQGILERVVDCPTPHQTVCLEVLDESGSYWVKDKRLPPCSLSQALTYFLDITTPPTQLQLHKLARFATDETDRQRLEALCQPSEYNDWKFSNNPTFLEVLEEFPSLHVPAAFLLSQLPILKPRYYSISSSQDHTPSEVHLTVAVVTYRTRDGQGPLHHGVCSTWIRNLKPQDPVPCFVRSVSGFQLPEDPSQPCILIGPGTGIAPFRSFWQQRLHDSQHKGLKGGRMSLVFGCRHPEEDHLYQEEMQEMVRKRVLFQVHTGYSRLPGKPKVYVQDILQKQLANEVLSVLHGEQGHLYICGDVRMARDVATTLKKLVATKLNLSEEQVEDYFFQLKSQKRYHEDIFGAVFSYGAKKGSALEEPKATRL
Kind of assay: Tested to inhibit the conversion of [3H]L-arginine to [3H]L-citrulline catalyzed by inducible NOS from mouse macrophage J774 cells at concentration below 100 uM; No significant inhibition. In kind it is cell-based.

The target in assay [5] is T4, Nitric oxide synthase, inducible. Kind of assay: Tested to inhibit the conversion of [3H]L-arginine to [3H]L-citrulline catalyzed by inducible NOS from mouse macrophage J774 cells. In kind it is cell-based.
For assay [6], the target named is T2, Nitric oxide synthase, inducible. As to the kind of experiment: Tested to inhibit the conversion of [3H]L-arginine to [3H]L-citrulline catalyzed by inducible NOS from human DLD-1 cells. In kind it is cell-based.
Assay [7] addresses T3, Nitric oxide synthase 3. Kind of assay: Tested to inhibit the conversion of [3H]L-arginine to [3H]L-citrulline catalyzed by endothelial NOS from human umbilical vein endothelial cells at concentration below 100 uM; No significant inhibition. In kind it is cell-based. Particulars: endothelial cell.
Assay [8] deals with T1, Nitric oxide synthase 1. As to the kind of experiment: Tested to inhibit the conversion of [3H]L-arginine to [3H]L-citrulline catalyzed by neuronal NOS from rat cerebellum at concentration below 100 uM; No significant inhibition.

T2 sequence (P35228 whole entry): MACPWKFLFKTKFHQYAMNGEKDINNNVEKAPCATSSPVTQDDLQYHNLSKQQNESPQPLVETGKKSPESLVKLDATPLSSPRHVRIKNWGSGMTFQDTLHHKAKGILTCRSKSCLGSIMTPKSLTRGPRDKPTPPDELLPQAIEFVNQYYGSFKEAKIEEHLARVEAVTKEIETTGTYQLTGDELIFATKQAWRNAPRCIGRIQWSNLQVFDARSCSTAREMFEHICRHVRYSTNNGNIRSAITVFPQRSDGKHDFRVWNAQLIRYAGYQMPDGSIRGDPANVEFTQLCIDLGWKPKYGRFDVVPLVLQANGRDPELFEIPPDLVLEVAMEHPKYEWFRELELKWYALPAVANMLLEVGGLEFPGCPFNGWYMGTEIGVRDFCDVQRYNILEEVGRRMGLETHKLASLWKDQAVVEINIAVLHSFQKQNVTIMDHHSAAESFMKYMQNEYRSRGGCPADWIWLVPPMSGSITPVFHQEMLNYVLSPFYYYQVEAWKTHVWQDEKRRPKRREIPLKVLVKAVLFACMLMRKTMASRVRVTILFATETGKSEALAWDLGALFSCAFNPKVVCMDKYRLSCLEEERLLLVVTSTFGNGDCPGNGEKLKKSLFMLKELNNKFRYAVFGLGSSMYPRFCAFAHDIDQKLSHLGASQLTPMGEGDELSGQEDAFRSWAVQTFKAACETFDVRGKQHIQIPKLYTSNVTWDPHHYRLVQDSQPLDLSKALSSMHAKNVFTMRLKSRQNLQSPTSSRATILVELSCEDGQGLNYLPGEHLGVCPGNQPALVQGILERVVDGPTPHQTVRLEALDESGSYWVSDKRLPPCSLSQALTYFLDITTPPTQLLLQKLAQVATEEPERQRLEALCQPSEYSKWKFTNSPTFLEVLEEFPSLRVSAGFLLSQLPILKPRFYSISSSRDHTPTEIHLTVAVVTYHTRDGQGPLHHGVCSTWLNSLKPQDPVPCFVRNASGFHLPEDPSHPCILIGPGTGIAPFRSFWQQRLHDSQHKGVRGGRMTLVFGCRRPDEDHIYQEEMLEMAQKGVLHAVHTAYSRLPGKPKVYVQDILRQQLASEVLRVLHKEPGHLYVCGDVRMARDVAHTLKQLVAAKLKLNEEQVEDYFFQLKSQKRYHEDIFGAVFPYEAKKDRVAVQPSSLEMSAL
T1 sequence (P29476 whole entry): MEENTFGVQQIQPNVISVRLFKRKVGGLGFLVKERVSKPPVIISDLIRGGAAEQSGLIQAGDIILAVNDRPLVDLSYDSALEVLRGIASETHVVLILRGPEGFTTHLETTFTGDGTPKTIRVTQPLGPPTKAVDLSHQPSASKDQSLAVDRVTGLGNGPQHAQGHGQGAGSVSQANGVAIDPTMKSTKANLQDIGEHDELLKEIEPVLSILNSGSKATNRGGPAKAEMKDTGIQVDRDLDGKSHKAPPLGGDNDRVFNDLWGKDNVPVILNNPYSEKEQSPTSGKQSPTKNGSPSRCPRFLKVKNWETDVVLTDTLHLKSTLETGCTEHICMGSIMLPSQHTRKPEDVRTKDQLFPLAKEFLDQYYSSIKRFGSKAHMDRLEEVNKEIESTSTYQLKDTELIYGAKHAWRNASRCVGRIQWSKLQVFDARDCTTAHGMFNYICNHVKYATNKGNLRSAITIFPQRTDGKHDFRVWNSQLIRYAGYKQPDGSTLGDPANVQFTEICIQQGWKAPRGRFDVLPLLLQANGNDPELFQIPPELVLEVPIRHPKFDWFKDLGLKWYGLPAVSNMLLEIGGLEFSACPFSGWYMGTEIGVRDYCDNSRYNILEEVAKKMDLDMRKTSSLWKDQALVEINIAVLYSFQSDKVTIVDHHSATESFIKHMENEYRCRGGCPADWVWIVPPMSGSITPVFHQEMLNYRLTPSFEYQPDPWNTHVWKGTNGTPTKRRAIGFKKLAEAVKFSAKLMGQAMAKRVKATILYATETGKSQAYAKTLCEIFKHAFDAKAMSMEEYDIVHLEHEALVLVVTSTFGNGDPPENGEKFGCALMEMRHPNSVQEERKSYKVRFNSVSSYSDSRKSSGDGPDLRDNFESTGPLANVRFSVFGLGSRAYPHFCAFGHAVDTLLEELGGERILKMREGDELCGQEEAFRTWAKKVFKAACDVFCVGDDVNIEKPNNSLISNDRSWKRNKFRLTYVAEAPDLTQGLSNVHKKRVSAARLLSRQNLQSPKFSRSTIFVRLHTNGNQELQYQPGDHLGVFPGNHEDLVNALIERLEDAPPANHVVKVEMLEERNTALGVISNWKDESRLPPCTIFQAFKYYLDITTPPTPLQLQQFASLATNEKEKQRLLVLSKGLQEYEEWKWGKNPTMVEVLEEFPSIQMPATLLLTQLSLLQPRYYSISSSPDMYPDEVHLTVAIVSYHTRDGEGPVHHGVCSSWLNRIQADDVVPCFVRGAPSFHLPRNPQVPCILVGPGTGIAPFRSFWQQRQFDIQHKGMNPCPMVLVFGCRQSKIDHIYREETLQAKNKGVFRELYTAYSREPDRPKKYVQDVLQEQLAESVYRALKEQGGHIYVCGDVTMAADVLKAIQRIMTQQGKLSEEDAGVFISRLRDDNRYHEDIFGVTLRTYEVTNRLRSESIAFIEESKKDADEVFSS

Usually IC50 stands for the concentration at which inhibition is half-maximal. With `CNn1c(N)nc2ccccc21`, the IC50 is 5.8 µM at Nitric oxide synthase 1 [1], “Not Active” in assay [2], “Not Active” at Nitric oxide synthase 3 [3] and “Not Active” in assay [4].
`Nc1nc2ccccc2n1N`: the IC50 at Nitric oxide synthase 1 [1] is 77 µM; in assay [5], 31 µM; in assay [6], 25 µM; against Nitric oxide synthase 3 [7] it was “Not Active”.
For the compound `O=[N+]([O-])c1cccc2cn[nH]c12` [7-NITROINDAZOLE], the IC50 in assay [5] came to 20 µM; in assay [6] it was 24 µM.
For the compound `N=C(N)NN` [PIMAGEDINE], the IC50 result on Nitric oxide synthase 1 [8] was “Not Active”; in assay [5], 9 µM; in assay [6] it was 54 µM; at Nitric oxide synthase 3 [7] it was “Not Active”.

The values above are taken from ChEMBL document CHEMBL1151588, “1,2-diaminobenzimidazoles : Selective inhibitors of nitric oxide synthase derived from aminoguanidine” (Bioorg Med Chem Lett, 1995).
